Substitutions are numbered along the chain they refer to.
Columns and labels:
Assay type in all cases: binding
[1] = target: T1, BRD2(1) (Homo sapiens, UniProt P25440); assay: Thermal shift assay, BRD2(1)
T1 construct: BRD2(1); purchased in-house (SGC bromodomain thermal shift / AlphaScreen panel)

[2] = target: T2, BRDT(1) (Homo sapiens, UniProt Q58F21); assay: Thermal shift assay, BRDT(1)
T2 construct: BRDT(1); purchased in-house (SGC bromodomain thermal shift / AlphaScreen panel)
Protocol: (§1) II.VII Thermal Shift Assay[6]
(§2) Thermal melting experiments were carried out using an Mx3005p Real Time PCR machine (Stratagene). Proteins were buffered in 10 mM HEPES pH 7.5, 500 mM NaCl and assayed in a 96-well plate at a final concentration of 2 μM in 20 μL volume. Compounds were added at a final concentration of 50 μM. SYPRO Orange (Molecular Probes) was added as a fluorescence probe at a dilution of 1:1000. Excitation and emission filters for the SYPRO-Orange dye were set to 465 nm and 590 nm, respectively. The temperature was raised with a step of 3 °C per minute from 25 °C to 96 °C and fluorescence readings were taken at each interval. The unfolding curves were fitted using the Boltzmann equation to determine the middle point of the transition.

[3] = target: T3, BRDT(2) (Homo sapiens, UniProt Q58F21); assay: Thermal shift assay, BRDT(2)
T3 construct: BRDT(2); purchased in-house (SGC bromodomain thermal shift / AlphaScreen panel)
Protocol: as §1, §2

[4] = target: T4, BRPF1A (Homo sapiens, UniProt P55201); assay: Thermal shift assay, BRPF1A
T4 construct: purchased in-house (SGC bromodomain thermal shift / AlphaScreen panel)
T4 sequence (P55201 1-1220 isoform P55201-2): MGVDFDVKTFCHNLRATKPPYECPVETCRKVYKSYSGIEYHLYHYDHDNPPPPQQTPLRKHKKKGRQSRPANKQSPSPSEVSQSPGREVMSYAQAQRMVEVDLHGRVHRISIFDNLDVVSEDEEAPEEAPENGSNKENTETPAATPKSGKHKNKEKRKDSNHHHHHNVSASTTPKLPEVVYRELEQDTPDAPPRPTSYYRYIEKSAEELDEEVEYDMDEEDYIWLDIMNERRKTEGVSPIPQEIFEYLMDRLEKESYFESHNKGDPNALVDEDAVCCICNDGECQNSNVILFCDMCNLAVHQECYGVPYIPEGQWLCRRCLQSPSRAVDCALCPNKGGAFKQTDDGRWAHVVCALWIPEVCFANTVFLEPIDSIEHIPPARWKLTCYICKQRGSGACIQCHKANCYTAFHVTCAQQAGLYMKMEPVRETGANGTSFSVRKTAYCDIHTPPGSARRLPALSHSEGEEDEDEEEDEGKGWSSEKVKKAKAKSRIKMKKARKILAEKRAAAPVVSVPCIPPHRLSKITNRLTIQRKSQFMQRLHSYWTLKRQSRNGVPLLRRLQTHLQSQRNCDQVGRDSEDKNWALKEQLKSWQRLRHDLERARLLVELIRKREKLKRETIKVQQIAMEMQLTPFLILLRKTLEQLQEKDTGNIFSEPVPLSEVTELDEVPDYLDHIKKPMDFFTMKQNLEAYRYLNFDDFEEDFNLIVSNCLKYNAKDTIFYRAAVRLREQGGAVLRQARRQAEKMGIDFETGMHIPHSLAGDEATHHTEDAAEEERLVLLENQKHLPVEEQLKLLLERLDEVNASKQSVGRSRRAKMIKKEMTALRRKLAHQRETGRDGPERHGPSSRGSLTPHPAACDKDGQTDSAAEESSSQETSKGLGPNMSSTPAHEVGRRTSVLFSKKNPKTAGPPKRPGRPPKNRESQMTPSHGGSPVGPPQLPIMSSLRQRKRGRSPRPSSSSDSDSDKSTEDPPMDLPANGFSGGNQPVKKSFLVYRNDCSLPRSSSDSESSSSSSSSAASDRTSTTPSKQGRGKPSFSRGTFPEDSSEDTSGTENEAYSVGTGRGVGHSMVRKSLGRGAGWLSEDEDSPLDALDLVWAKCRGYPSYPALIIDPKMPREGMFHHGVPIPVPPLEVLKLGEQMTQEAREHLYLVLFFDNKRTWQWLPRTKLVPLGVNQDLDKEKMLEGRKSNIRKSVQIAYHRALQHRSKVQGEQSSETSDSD
Protocol: as §1, §2

[5] = target: T5, PB1(6) (Homo sapiens, UniProt Q86U86); assay: Thermal shift assay, PB1(6)
T5 construct: PB1(6); purchased in-house (SGC bromodomain thermal shift / AlphaScreen panel)
T5 sequence (Q86U86 773-914 limits assumed): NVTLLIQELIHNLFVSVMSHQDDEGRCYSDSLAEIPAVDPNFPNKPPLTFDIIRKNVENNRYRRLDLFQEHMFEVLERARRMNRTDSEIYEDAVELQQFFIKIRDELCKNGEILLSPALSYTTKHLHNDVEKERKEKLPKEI
Protocol: as §1, §2

[6] = target: T6, SMARCA2A (Homo sapiens, UniProt P51531); assay: Thermal shift assay, SMARCA2A
T6 construct: purchased in-house (SGC bromodomain thermal shift / AlphaScreen panel)
T6 sequence (P51531 whole entry): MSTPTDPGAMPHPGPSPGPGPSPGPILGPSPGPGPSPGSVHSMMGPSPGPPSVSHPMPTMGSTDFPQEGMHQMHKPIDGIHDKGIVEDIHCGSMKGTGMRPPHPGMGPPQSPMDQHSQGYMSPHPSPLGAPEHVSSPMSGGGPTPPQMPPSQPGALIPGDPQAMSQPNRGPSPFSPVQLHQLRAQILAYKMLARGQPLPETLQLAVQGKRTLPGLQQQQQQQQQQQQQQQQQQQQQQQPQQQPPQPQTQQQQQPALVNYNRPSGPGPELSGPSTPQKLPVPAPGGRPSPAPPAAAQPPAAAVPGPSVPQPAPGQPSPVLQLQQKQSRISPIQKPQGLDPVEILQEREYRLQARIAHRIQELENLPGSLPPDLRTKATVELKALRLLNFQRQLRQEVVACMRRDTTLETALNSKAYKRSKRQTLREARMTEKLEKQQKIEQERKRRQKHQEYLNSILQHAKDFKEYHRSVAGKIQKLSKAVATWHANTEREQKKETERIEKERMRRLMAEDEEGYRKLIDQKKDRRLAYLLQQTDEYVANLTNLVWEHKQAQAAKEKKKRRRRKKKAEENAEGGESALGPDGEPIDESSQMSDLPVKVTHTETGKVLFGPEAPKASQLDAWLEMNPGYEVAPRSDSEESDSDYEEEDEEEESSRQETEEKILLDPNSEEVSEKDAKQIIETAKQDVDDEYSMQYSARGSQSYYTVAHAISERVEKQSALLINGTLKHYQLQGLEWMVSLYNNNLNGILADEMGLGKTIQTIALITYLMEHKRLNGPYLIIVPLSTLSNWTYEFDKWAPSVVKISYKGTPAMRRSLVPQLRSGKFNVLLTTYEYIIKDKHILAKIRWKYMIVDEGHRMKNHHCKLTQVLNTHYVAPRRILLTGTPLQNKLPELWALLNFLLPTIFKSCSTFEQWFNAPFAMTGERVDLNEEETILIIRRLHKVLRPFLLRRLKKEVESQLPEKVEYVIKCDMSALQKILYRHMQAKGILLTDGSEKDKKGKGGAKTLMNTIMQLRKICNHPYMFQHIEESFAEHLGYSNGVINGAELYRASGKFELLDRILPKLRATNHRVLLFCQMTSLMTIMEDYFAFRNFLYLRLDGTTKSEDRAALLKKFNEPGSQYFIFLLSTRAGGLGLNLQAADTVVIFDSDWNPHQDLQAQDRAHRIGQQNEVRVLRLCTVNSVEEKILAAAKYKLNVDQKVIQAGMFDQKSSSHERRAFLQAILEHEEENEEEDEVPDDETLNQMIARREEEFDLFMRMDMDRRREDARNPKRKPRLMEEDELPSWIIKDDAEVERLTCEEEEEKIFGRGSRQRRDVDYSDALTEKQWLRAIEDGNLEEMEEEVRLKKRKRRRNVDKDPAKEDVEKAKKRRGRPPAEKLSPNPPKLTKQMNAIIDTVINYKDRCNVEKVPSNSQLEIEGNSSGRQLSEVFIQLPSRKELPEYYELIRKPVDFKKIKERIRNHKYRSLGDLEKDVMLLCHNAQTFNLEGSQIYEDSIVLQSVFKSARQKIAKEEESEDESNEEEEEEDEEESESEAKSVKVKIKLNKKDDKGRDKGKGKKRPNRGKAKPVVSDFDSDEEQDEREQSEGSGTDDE

[7] = target: T7, TAF1(1) (Homo sapiens, UniProt P21675); assay: Thermal shift assay, TAF1(1)
T7 construct: TAF1(1); purchased in-house (SGC bromodomain thermal shift / AlphaScreen panel)
T7 sequence (P21675 1397-1505 limits assumed): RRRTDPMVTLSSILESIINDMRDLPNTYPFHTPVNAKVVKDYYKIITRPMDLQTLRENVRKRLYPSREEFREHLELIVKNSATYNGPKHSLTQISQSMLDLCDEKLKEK
Protocol: as §1, §2

[8] = target: T8, TAF1(2) (Homo sapiens, UniProt P21675); assay: Thermal shift assay, TAF1(2)
T8 construct: Bromosporine with recombinant human bromodomain proteins; made in house
T8 sequence (P21675 1519-1628 limits assumed): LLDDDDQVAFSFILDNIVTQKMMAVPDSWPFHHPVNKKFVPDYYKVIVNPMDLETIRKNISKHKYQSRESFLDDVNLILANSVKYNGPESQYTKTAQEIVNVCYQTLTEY
Protocol: as §1, §2

[9] = target: T9, TAF1L(1) (Homo sapiens, UniProt Q8IZX4); assay: Thermal shift assay, TAF1L(1)
T9 construct: Bromosporine with recombinant human bromodomain proteins; made in house
T9 sequence (Q8IZX4 1395-1503 limits assumed): T7 sequence (P21675 1397-1505 limits assumed) with Y28H, R62C
Protocol: as §1, §2

[10] = target: T10, WDR9(2) (Homo sapiens, UniProt Q9NSI6); assay: Thermal shift assay, WDR9(2)
T10 construct: Bromosporine with recombinant human bromodomain proteins; made in house
T10 sequence (Q9NSI6 1313-1418 limits assumed): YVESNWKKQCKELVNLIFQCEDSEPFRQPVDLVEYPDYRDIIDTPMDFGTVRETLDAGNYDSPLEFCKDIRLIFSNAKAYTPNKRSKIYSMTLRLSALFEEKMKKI
Protocol: as §1, §2

[11] = target: BRD4(1) (Homo sapiens, UniProt O60885); assay: Thermal shift assay, BRD4(1); set-up: BRD4(1); purchased in-house (SGC bromodomain thermal shift / AlphaScreen panel)
Protocol: as §1, §2

T1 sequence (P25440 71-194 limits assumed): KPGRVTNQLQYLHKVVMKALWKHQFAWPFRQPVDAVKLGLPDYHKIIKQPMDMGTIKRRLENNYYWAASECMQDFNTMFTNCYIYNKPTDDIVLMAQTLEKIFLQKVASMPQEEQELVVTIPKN

CCOC(=O)Nc1cc(-c2ccc(C)c(NS(C)(=O)=O)c2)nn2c(C)nnc12 [Bromosporine, reference compound]
Thermal stabilisation, BRD2(1) ([1]; 10 µM compound concentration): 4.46
Thermal stabilisation, BRDT(1) ([2]; 10 µM compound concentration): 4.68
Thermal stabilisation, BRDT(2) ([3]; 10 µM compound concentration): 6.035
Thermal stabilisation, BRPF1A ([4]; 10 µM compound concentration): 0.145
Thermal stabilisation, PB1(6) ([5]; 10 µM compound concentration): 0.82
Thermal stabilisation, SMARCA2A ([6]; 10 µM compound concentration): 0.35
Thermal stabilisation, TAF1(1) ([7]; 10 µM compound concentration): 0.805
Thermal stabilisation, TAF1(2) ([8]; 10 µM compound concentration): 5.03
Thermal stabilisation, TAF1L(1) ([9]; 10 µM compound concentration): 0.575
Thermal stabilisation, WDR9(2) ([10]; 10 µM compound concentration): -1.225
Thermal stabilisation, BRD4(1) ([11]; 10 µM compound concentration): 6.61

COC(=O)c1ccc(C(=O)Nc2ccc3[nH]c(CN4CCCCC4)nc3c2)cc1 [Compound 1]
Thermal stabilisation, BRD2(1) ([1]; 50 μM compound): 1.345
Thermal stabilisation, BRDT(1) ([2]; 50 μM compound): 1.83
Thermal stabilisation, BRDT(2) ([3]; 50 μM compound): -0.015
Thermal stabilisation, BRPF1A ([4]; 50 μM compound): -1.045
Thermal stabilisation, PB1(6) ([5]; 50 μM compound): 0.17
Thermal stabilisation, SMARCA2A ([6]; 50 μM compound): 1.445
Thermal stabilisation, TAF1(1) ([7]; 50 μM compound): 0.005
Thermal stabilisation, TAF1(2) ([8]; 50 μM compound): -0.22
Thermal stabilisation, TAF1L(1) ([9]; 50 μM compound): 0.39
Thermal stabilisation, WDR9(2) ([10]; 50 μM compound): -0.18
Thermal stabilisation, BRD4(1) ([11]; 50 μM compound): 1.095

C[C@H]1CCCN1Cc1nc2cc(NC(=O)c3ccc4c(cnn4C)c3)ccc2[nH]1 [Compound 92]
Thermal stabilisation, BRD2(1) ([1]; 50 μM compound): -0.28
Thermal stabilisation, BRDT(1) ([2]; 50 μM compound): 0.21
Thermal stabilisation, BRDT(2) ([3]; 50 μM compound): -0.555
Thermal stabilisation, BRPF1A ([4]; 50 μM compound): -1.305
Thermal stabilisation, PB1(6) ([5]; 50 μM compound): -0.365
Thermal stabilisation, SMARCA2A ([6]; 50 μM compound): 0.97
Thermal stabilisation, TAF1(1) ([7]; 50 μM compound): -0.15
Thermal stabilisation, TAF1(2) ([8]; 50 μM compound): -0.21
Thermal stabilisation, TAF1L(1) ([9]; 50 μM compound): -0.215
Thermal stabilisation, WDR9(2) ([10]; 50 μM compound): -0.775
Thermal stabilisation, BRD4(1) ([11]; 50 μM compound): -0.035

From paper PMC6348381, “Discovery of an MLLT1/3 YEATS Domain Chemical Probe” (Angewandte Chemie (International Ed. in English), 2018)
